This note sets out measurements from paper PMC3006138, “Fexinidazole – A New Oral Nitroimidazole Drug Candidate Entering Clinical Development for the Treatment of Sleeping Sickness” (PLoS Neglected Tropical Diseases, 2010).

Values joined by “and” are separate entries in the source; they are usually repeats but may differ in a detail not shown here. Equal entries are not always repeated. Where two headings read alike, the source gives them in different places.

What is called IC50 is the point on the concentration scale where inhibition reaches its midpoint. Usually Cmax stands for the highest concentration seen after dosing. As a reminder, the Tmax is the time from dosing to the highest level. A word on the logD: it is the decadic logarithm of the distribution of all forms, ionised or not, between an organic phase and buffer at a given pH. Low readings indicate lower lipophilicity, high ones higher lipophilicity. For orientation: bioavailability means dose-corrected exposure relative to a reference, in per cent.

The test system of one data set is L-6 rat myoblast cells. The data set is described as follows: Cytotoxicity assay. It counts as cell-based. The following applies: 72 h, read-out: IC50. On the procedure:
10 µL of Alamar Blue was added for the final 3 h to determine viability. […] The IC50 values were calculated from the sigmoidal inhibition curves. For cytotoxicity, 4×10^4/mL L-6 rat skeletal myoblast cells were used, and incubations and assessments carried out as above.

Data set [1] deals with hepatocytes from African American donors. Description: Hepatocyte intrinsic clearance and metabolite profile. It is filed as in vitro ADME, human. The following applies: fexinidazole 10 µM. On the procedure: Fexinidazole was incubated with cryopreserved hepatocytes from male CD-1 mice, male Sprague Dawley rats, male beagle dogs, male cynomolgus monkeys, and from pooled white or African-American human donor samples (purchased commercially), at concentrations of 1 µM and 10 µM. […] The incubated samples were analyzed by LC-MS after extraction into acetonitrile.
Fexinidazole sulfoxide, lot 1106-I-0170, 99.3% purity, and fexinidazole sulfone, lot 1106-I-0171, 99.9% purity, were provided by the Sponsor.
Cryopreserved hepatocytes of five single donors, lots EHI, REL, KSE […]
ZIJ and MRS, were purchased from In Vitro Technologies Inc (Baltimore, Maryland, USA).
The certificates of analysis are reported in Appendix 1.
Reagents and solvents were of analytical grade and obtained from Sigma-Aldrich (St. Louis, […]
7.5. In Vitro Incubations
On the day of the experiment a 10 mM stock solution of fexinidazole in DMSO was prepared and, within 3 hours, aliquots of this freshly prepared solution, after suitable dilution, were added to the incubation matrix, to reach fexinidazole final concentrations of 1 and 10 µM. The final percentage of DMSO was 0.01% in the incubation samples for the […]
The cryopreserved hepatocytes were thawed according to the supplier’s procedure and the number of viable cells was determined using the Trypan Blue exclusion method. Viabilities were 92% for lot EHI, 89% for lot REL, 82% for lot KSE, 86% for lot ZIJ and 86% for lot MRS in the intrinsic clearance study. In the metabolite profile study viabilities were 91% for lot EHI, 90% for lot REL, 85% for lot KSE, 84% for lot ZIJ and 87% for lot MRS.
Afterwards, the same amount of viable cells for each donor were pooled and used for the incubations of fexinidazole.
7.5.1. Intrinsic Clearance Study […]
µM with pooled human hepatocytes (1 million cells/mL) in a final incubation volume of 1 mL Leibovitz L-15 medium, at 37°C. Incubations were performed in duplicate in a 48-well plate under shaking. Sampling was performed using an automatic liquid handling system (Multiprobe II EX, Packard). At 0, 1, 5, 10, 15, 20, 30, 60 and 120 minutes, 50 µL aliquots of the incubates were taken, then 80 µL of ice-cold acetonitrile and 20 µL of 1 µM warfarin in acetonitrile (internal standard) were added, and samples centrifuged at 2000 rpm for 20 min. The supernatant was analyzed by LC-MS/MS. […]
The chemical stability of fexinidazole was checked by incubating the compound at 37°C in the medium alone at t = 0 and 120 minutes.
For the determination of phase I and phase II activities of hepatocytes, 7-ethoxycoumarin (7-ETC) 1 µM, and 7-hydroxycoumarin (7-HC) 30 µM were used as positive controls and incubated under the same conditions as fexinidazole. Aliquots of incubates were taken at 0, 1, 5, 10, 15, 20, 30, 60 and 120 minutes and processed as fexinidazole samples.
7.5.2. Metabolite Profile Study
For metabolite profiling, fexinidazole was incubated at a concentration of 10 µM with pooled human hepatocytes (1 million cells/mL) in a final incubation volume of 2 mL Leibovitz L-15 medium, at 37°C. Aliquots of the incubation samples were taken at t = 0, 30 and 120 minutes; the metabolism was stopped by the addition of an equal volume of cold acetonitrile and the samples centrifuged at 1100 rpm for 20 min. The supernatant was stored at -20°C until analysis. Control incubations were performed with the compound in the medium alone for 120 minutes.
7.6. Analysis of the Samples of Intrinsic Clearance Study
The analysis of the samples for intrinsic clearance determination was performed by an LC-MS/MS method, using the following conditions:
HPLC Equipment and Conditions
HPLC system 1100 binary pump (Agilent, Palo Alto, USA)
Autosampler 2777 (Waters)
Analytical column Guard Column SB-C8 4.6 x 12.5 mm, 5 µm (Zorbax)
Column temperature ambient
Mobile phase A 10 mM ammonium formate pH 4.0: acetonitrile (95:5, v:v)
Mobile phase B 10 mM ammonium formate pH 4.0: acetonitrile (5:95, v:v) […]
Gradient conditions Step Total time (min) flow (µL/min) %A % B […]

Data set [2] can be described thus: Rat single-dose IV and oral pharmacokinetics. The following applies: for AUC(0-t): read-out: AUC0-t(last); for half-life: read-out: t1/2,z (converted). It is filed as in vivo. Here is the method:
METHODS […] Fexinidazole was given as IV and oral administrations to male Sprague Dawley rats according to the following scheme Rat ID Route Dose (mg/kg) Formulation […] IV dose was administered via the tail vein, the oral dose was administered by gastric gavage. 4.2. […] On the day of dosing, approximately 0.3 mL of blood/sampling time were taken from the cannula using heparinized syringes, transferred immediately into tubes (pre-cooled in an ice/water bath) and centrifuged at […] The separated plasma was split into two aliquots, then stored at -80°C until analysis. […] 4.3. Bioanalytical Method Plasma concentrations of Fexinidazole were determined by a LC-MS-MS method. The lower limit of the bioanalytical method was 5.12 ng/mL. […] Details of the bioanalytical method were reported in Appendix 2 and the analytical performance was reported in Appendix 3. 4.4. […] For the calculations, pre-dose concentrations were set equal to C0.033 and equal to zero after IV and oral administrations, respectively. […] regression line. […] Absolute bioavailability was calculated from the ratio of the average oral to IV dose- normalized AUC0-∞ values. […] Plasma concentrations and pharmacokinetic parameters of Fexinidazole were reported to three significant figures. 5. RESULTS Mean ±SD systemic exposure parameters of Fexinidazole after IV and oral administrations of the compound are reported in Table 1. […] This side […] After oral administration, detectable concentrations of Fexinidazole were measured at the […] Mean ±SD maximal plasma concentration of Fexinidazole was 147 ±37 ng/mL, achieved 2 h post dosing. The concentrations of the compound were detectable up to the end of the experiment (8 h). […] Mean ±SD AUC0-∞ was 662 ±106 ng⋅h/mL. […] 6. CONCLUSIONS After both doses, low variability of the pharmacokinetic parameters of Fexinidazole was observed. […] Report Amendment for Study 0327-2007 2. […] METHODS […] The lower limit of the bioanalytical method was 5.00 ng/mL for both compounds. […] Details of the bioanalytical method are reported in Table 1 and the analytical performances of calibration standards are reported in Tables 2-5. 3.2.

A short description of a further data set: Lipophilicity (logD). The settings on record: pH 7.4. It is filed as physicochemical.
Data set [3] can be described thus: Half-life after oral treatment across species. It is filed as in vivo. The following applies: mouse, rat, dog, plasma, mice, rats and dogs.
Where [4] appears, read: Sprague Dawley, plasma, fexinidazole 5 mg/kg IV, male SD rats, read-out: Cmax (C0.033 for parent).
Where [5] appears, read: male, Sprague Dawley, plasma, fexinidazole 5 mg/kg IV.
[6] abbreviates: male, Sprague Dawley, plasma, fexinidazole 10 mg/kg oral.
Setting [7] is: male, Sprague Dawley, plasma, fexinidazole 10 mg/kg oral, read-out: Cmax.

For `Cn1c([N+](=O)[O-])cnc1COc1ccc(S(C)(=O)=O)cc1` [Fexinidazole sulfone], the IC50 with L-6 rat myoblast cells is > 90 µg/mL and > 289 µM. In addition, in data set [1] (120 min), the “% of total drug related material” value worked out at 1%. The highest concentration (Cmax) turned out to be 2090 ng/mL in data set [2] (setting [4]) and 2660 ng/mL in data set [2] (setting [7]). Besides, the figures for the Tmax in data set [2] (setting [5]) and in data set [2] (setting [6]) were 5.33 h and 6 h, respectively. In addition, the values for the AUC(0-t) in data set [2] (setting [5]) and in data set [2] (setting [6]) were 9590 ng·h/mL and 14300 ng·h/mL, respectively. Besides, in the data set “Lipophilicity (logD)”, the logD worked out at 0.74. This compound also showed a half-life in data set [3] of no more than 24 h.
As for `Cn1c([N+](=O)[O-])cnc1COc1ccc([S+](C)[O-])cc1` (centres unmarked) [Fexinidazole sulfoxide], the IC50 in the data set with L-6 rat myoblast cells was > 90 µg/mL and > 305 µM. In addition, the “% of total drug related material” value in data set [1] (30 min) came out at 98%; in data set [1] (120 min), 98%; in data set [1] (t=0), 23%. Further, the Cmax in data set [2] (setting [4]) stood at 3070 ng/mL; in data set [2] (setting [7]), 3520 ng/mL. The Tmax in data set [2] (setting [5]) turned out to be 1 h; in data set [2] (setting [6]), 2 h. Moreover, the AUC(0-t) in data set [2] (setting [5]) stood at 9440 ng·h/mL; in data set [2] (setting [6]), 16200 ng·h/mL. In “Lipophilicity (logD)”, this compound showed a log distribution coefficient (logD) of 0.52. This compound displayed a half-life in data set [3] of 2 to 7 h.
With `CSc1ccc(OCc2ncc([N+](=O)[O-])n2C)cc1` [Fexinidazole, 1-methyl-2-((p-(methylthio)phenoxy)methyl)-5-nitroimidazole], in the data set with L-6 rat myoblast cells, the IC50 is > 90 µg/mL and > 322 µM. Also, the “% of total drug related material” value in data set [1] (30 min) was 1%; in data set [1] (t=0), 77%. The Cmax came out at 3660 ± 217 ng/mL in data set [2] (setting [4]) and 147 ± 36.6 ng/mL in data set [2] (setting [7]). Moreover, the clearance in data set [2] (male, Sprague Dawley, plasma, 5 mg/kg IV) was found to be 76.2 mL/min/kg. Besides, the Vd in data set [2] (male, Sprague Dawley, plasma, 5 mg/kg IV, read-out: Vss) stood at 4.69 L/kg. Also, the AUC(0-t) in data set [2] (setting [5]) was found to be 1160 ng·h/mL; in data set [2] (setting [6]), 631 ng·h/mL. Also, the half-life was 1.71 h in data set [2] (setting [5]), 1.72 h in data set [2] (setting [6]) and 1 to 3 h in data set [3]. For the same compound, the Tmax in data set [2] (setting [6]) is 2 h. For the same compound, the AUC(0-inf) in data set [2] (male, Sprague Dawley, plasma, iv, 5 mg/kg, fexinidazole 5 mg/kg IV, read-out: AUC0-∞) was 1200 ± 26.5 ng·h/mL; in data set [2] (male, Sprague Dawley, plasma, po, 10 mg/kg, fexinidazole 10 mg/kg oral, read-out: AUC0-∞), 662 ± 106 ng·h/mL; in data set [2] (male, Sprague Dawley, plasma, po, 10 mg/kg, oral, normalized to 1 mg/kg, read-out: AUC0-∞, norm), 65.1 ng·h/mL. In addition, in data set [2] (male, Sprague Dawley, plasma, oral, 10 mg/kg, oral 10 mg/kg vs IV 5 mg/kg, read-out: Absolute bioavailability F), the bioavailability turned out to be 30%. Besides, the “Absolute bioavailability F” value in data set [2] (oral 10 mg/kg vs IV 5 mg/kg) is reported as 29.7%. The same compound came in with a logD in “Lipophilicity (logD)” of 2.83.
